Experimental data published in US10350235B2, “Cationic polysaccharides for delivery of phosphoinositides to cells for therapeutic purpose” (priority 2015, dated 2019).

Legend:
[1] = Zeta potential (Zetasizer, Smoluchowski model); type: physicochemical; settings: in mV (unit assumed)
Method: The hydrodynamic size of the complexes was measured by dynamic light scattering (DLS). Spectra were collected by using CGS-3, (ALV, Langen, Germany). The laser power was 20 mW at the He—Ne laser line (632.8 nm). Correlograms were calculated by ALV/LSE 5003 correlator, which were collected at 90°, during 20 s for 10 times, at 25° C. The correlograms were fitted with version of the program CONTIN (provencher, 1982). Samples of complexes were each diluted to a final volume of 1 mL in DDW. Each sample was measured three times and solutions were further diluted until results were independent of dilution rate. Complexes' size is presented as average of triplicates. Samples from DLS were transferred to U-tube cuvette (DTS 1070, Malvern) for subsequent zeta potential measurements using Zetasizer (ZN-NanoSizer, Malvern, England). Each sample was measured at automatic mode, at 25° C. and the Smoluchowski model was used to calculate the zeta potential. For each sample the zeta potential value was presented as the average value of three runs, and the average value of each N/P ratio is presented as the average of triplicates.

HEK293 cells = assay: Autophagy flux (LC3-II western blot with and without bafilomycin A1); type: cell-based
Method: Autophagy Flux was assessed using western blot by comparing of the cumulative LC3-II levels in HEK293 cells with and without autophagy inhibitor—bafilomycin A1 (vacuolar H+ ATPase inhibitor, 0.1 μM). Bafilomycin A1 inhibits autophagosomes degradation by fusion with lysosome since it prevents the lysosome acidification. LC3-II is an autophagosomal membrane protein therefore it is used as autophagy marker. HEK293 cells were seeded in a 6-well plate 24 hours before treatment in DMEM growth media. The cells were incubated with or without bafilomycin A1 and 3-Methyladenine (3-MA) in EBSS for 2 hours (3-MA, 5 mM) in 37° C. and 5% CO2. 3-MA acts as an autophagy inhibitor since it inhibits III phosphatidylinositol 3-kinases (PI-3K) which produce the endogenous PI3P. At the second hour the cells were treated with Q-starch/PI3P complexes at N/P ratio of 2 and with PI3P alone as control (final PI3P concentration in each well was 0.5 μM).
Up-regulation of autophagy in HEK293 cells with the Q-starch/PI3P complexes was assessed by comparing the autophagy flux for the following conditions (FIG. 7): flux after 3 hours of serum starvation, flux after inhibition of the formation of endogenous PI3P by 3-MA (3-Methyladenine), flux after treatment with 3-MA and complexes at N/P ratio of 2 and flux after treatment with 3-MA and PI3P.

[2] = Cryo-TEM imaging of complex size and geometry in solution; type: physicochemical; settings: FIG. 3; complexes at N/P ratios of 2 to 3
Method: Complex size and geometry in solution were visualized using Cryo-TEM. TEM at cryogenic temperature (Cryo-TEM) is used for direct imaging of solutions and dispersions. Vitrified specimens are prepared on a copper grid coated with a perforated lacy carbon 300 mesh (Ted Pella Inc.). A typically 4 μl drop from the solution is applied to the grid and blotted with a filter paper to form a thin liquid film of solution. The blotted sample are immediately plunged into liquid ethane at its freezing point (−183° C.). The procedure is performed automatically in the Plunger (Lieca EM GP). The vitrified specimens are transferred into liquid nitrogen for storage. the samples are studied using a FEI Tecnai 12 G2 TEM, at 120 kV with a Gatan cryo-holder maintained at −180° C., and images are recorded on a slow scan cooled charge-coupled device CCD camera Gatan manufacturer. Images are recorded with the Digital Micrograph software package, at low dose conditions, to minimize electron beam radiation damage.

## CCCCCCCC(=O)OC[C@H](COP(=O)(O)O[C@@H]1[C@H](O)[C@H](OP(=O)(O)O)[C@@H](O)[C@H](O)[C@H]1O)OC(=O)CCCCCCC [PI3P, Phosphatidylinositol 3-phosphate diC8]
[1]; non-complexed alone (FIG. 4B): 0.5 μM PI3P, 0.45 mg/L Q-starch
  average zeta potential: −14.8±3.8
HEK293 cells; with 3-MA 5 mM in EBSS, final PI3P 0.5 μM, complexes at N/P=2
  autophagy flux (difference in LC3-II levels with and without bafilomycin A1): did not affect the levels of autophagy flux

## Cn1cnc(N)c2ncnc1-2 [3-MA, 3-Methyladenine]
HEK293 cells; 3-MA 5 mM alone, compared to serum starvation
  autophagy flux (difference in LC3-II levels with and without bafilomycin A1): decrease in the autophagy flux

## CCCCCCCCCCCCCCCC(=O)OC[C@H](COP(=O)(O)OC1[C@H](O)[C@H](OP(=O)(O)O)C(OP(=O)(O)O)[C@H](OP(=O)(O)O)[C@H]1O)OC(=O)CCCCCCCCCCCCCCC (some centres unmarked) [PIP3, phosphatidylinositol (3,4,5) trisphosphate diC16]
[1]; non-complexed component alone (FIG. 1)
  average zeta potential: −20.83
[2]
  shape in cryo-TEM images: shape of long filaments
